According to paper PMC8236048, “Pharmaceutical design of a delivery system for the bacteriocin lacticin 3147” (Drug Delivery and Translational Research, 2021):

Experiments:
[1] = system: L. monocytogenes ATCC 1916; assay: Growth curve bioactivity assay versus L. monocytogenes ATCC 1916; assay type: cell-based; conditions: 0.5 h, 37 °C, 300 rpm, 0.2 µm PES filtered, growth curve 24 h
Protocol: An overnight culture of L. monocytogenes ATCC1916 was grown in TSB media supplemented with 6 g/L yeast at 37 °C. Freeze-dried Ltnα and Ltnβ were resuspended individually in 70% IPA to make a 1-mg/ml solution and filtered through a 0.2-µm filter (polyethersulfone) PES filter. They were then diluted in sterile PBS to a final peptide concentration of 50 µg/ml. Peptide solutions were added in triplicate to a 96-well plate with sufficient PBS to give a volume of 50 µl. 150 µl of diluted bacterial cell culture (optical density (OD) of 0.1 at 595 nm) was then added to the wells. Final peptide concentrations of 150 nM (0.50 µg/ml Ltnα, 0.43 µg/ml Ltnβ), 300 nM (0.99 µg/ml Ltnα, 0.85 µg/ml Ltnβ), and 400 nM (1.31 µg/ml Ltnα, 1.14 µg/ml Ltnβ) were obtained when the wells were filled to 200 µl. Blanks were set up in triplicate with media only and PBS only. The three control wells were also set up with bacterial culture and PBS only. The 96-well plate was incubated in a Biotek ELx808 Ultra microplate reader at 37 °C for 24 h. Readings were taken at a wavelength of 590 nm every 30 min for 24 h with the plate shaken mildly before each reading.
An excess quantity of freeze-dried Ltnα and Ltnβ were resuspended individually in PBS buffer/FaSSGF/FaSSIF. The samples were then incubated for 0.5 h at 37 ± 0.5 °C with stirring at 300 rpm. At the end of the incubation period, samples were filtered through a 0.2-µm PES syringe filter and employed in the in vitro activity assay. Briefly, 25 µl of each of the filtered peptide solutions were added in triplicate to the same wells of a 96-well plate. Three control wells were set up containing 50 µl of PBS alone. 150 μl of L. monocytogenes ATCC 1916 with an OD of 0.1 at 595 nm was added to each well. The 96-well plate was then incubated in a Biotek ELx808 Ultra microplate reader at 37 °C for 24 h. The readings were taken as previously described.

[2] = system: L. monocytogenes ATCC1916; assay: Well diffusion assay, lacticin 3147 SLNs vs free peptide; assay type: cell-based; conditions: 6-mm wells, 12.5 µL α + 12.5 µL β component, 0.2 µm filtered, free peptide in water at the total peptide content of the SLNs, mean ± SD
Protocol: The activity of the lacticin 3147 SLNs was evaluated using the well diffusion assay method, on TSA supplemented with 6 g/L yeast. The inhibition zones were reported in millimetre (mm) using electronic Vernier callipers. […] Wells were bored in the agar after it hardened using a sterile 6-mm cork borer. α-SLN and β-SLN were filtered using a 0.2-μm PES filter (SLNs can pass through), and 12.5 μL of each was added to the same well. The blank SLNs were used as negative controls (25 μL). […] The free peptides were filtered again using a 0.2-μm PES filter before addition to the wells to ensure sterility. All tests were performed in triplicate.

L. lactis HP = conditions: at a neutral pH; cited from earlier work
From the text: Lacticin 3147 is a two-peptide (Ltnα and Ltnβ) bacteriocin produced by Lactococcus lactis DPC6577 (Fig. 1). It is classified as a lantibiotic due to the presence of lanthionine rings in its structure. The two peptides act synergistically, targeting lipid II, a precursor of peptidoglycan synthesis in Gram-positive bacteria, leading to inhibition of cell wall synthesis, pore formation, and eventual cell death. […] These masses correspond with those previously reported in the literature. Lacticin 3147′s activity against various strains including L. monocytogenes and C. difficile has been previously reported in the literature; however, for the purpose of this study, L. monocytogenes was used to establish the impact of solution composition, pH, and process ...

## lacticin 3147
[1]; FaSSGF (pH 1.6)
  activity against L. monocytogenes ATCC 1916 after addition in excess to FaSSGF and filtration: active
[1]; FaSSIF (pH 6.5)
  activity against L. monocytogenes ATCC 1916 after addition in excess to FaSSIF and filtration: active
[1]; PBS (pH 7.4)
  activity against L. monocytogenes ATCC 1916 after addition in excess to PBS and filtration: active
[2]
  zone of inhibition: 12.9 ± 0.3 mm
L. lactis HP
  activity against L. lactis subsp. cremoris HP: active
